According to ChEMBL document CHEMBL1201862, “PubChem BioAssay data set” (2004):
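A five-concentration, 48-hour dose response in 96-well plates underlies each endpoint, interpolated linearly between surrounding concentrations. GI50 is the concentration that inhibits growth by half.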 Active and inactive are the calls of the source. Cut-off read from the data, not from the text of the source: active = GI50 up to about 1.1 µM and inactive = higher.

How the values were obtained:
Experiment in all cases: inhibition of tumour cell growth, NCI panel, 48 h
[1] = test system: 786-0
[2] = test system: A498
[3] = test system: A549
[4] = test system: ACHN
[5] = test system: CCRF-CEM
[6] = test system: COLO 205
[7] = test system: DLD-1
[8] = test system: DMS-114
[9] = test system: DMS-273
[10] = test system: EKVX
[11] = test system: HCC 2998
[12] = test system: HCT-116
[13] = test system: HCT-15
[14] = test system: HL-60
[15] = test system: HOP-18
[16] = test system: HOP-62
[17] = test system: HOP-92
[18] = test system: HT-29
[19] = test system: IGROV-1
[20] = test system: K562
[21] = test system: KM-20L2
[22] = test system: KM12
[23] = test system: LOX IMVI
[24] = test system: LXFL 529
[25] = test system: M14
[26] = test system: M19-MEL
[27] = test system: MOLT-4
[28] = test system: Malme-3M
[29] = test system: NCI-H226
[30] = test system: NCI-H23
[31] = test system: NCI-H460
[32] = test system: NCI-H522
[33] = test system: OVCAR-3
[34] = test system: OVCAR-4
[35] = test system: OVCAR-5
[36] = test system: OVCAR-8
[37] = test system: RPMI-8226
[38] = test system: RXF 393
[39] = test system: SF-268
[40] = test system: SF-295
[41] = test system: SF-539
[42] = test system: SK-MEL-28
[43] = test system: SK-MEL-2
[44] = test system: SK-MEL-5
[45] = test system: SK-OV-3
[46] = test system: SN12C
[47] = test system: SNB-19
[48] = test system: SNB-75
[49] = test system: SNB-78
[50] = test system: SR
[51] = test system: SW-620
[52] = test system: TK-10
[53] = test system: U-251
[54] = test system: UACC-257
[55] = test system: UACC-62
[56] = test system: UO-31
[57] = test system: XF498

N#CC1(C#N)C2C=CC(c3coc4cccc2c34)C1(C#N)C#N (configuration not stated)
GI50 [1]: 20.5 µM (inactive) | GI50 [2]: 20.4 µM (inactive) | GI50 [3]: 17.9 µM (inactive) | GI50 [4]: 5.53 µM (inactive) | GI50 [5]: 1.11 µM (active) | GI50 [6]: 1.9 µM (inactive) | GI50 [7]: 2.02 µM (inactive) | GI50 [8]: 5.11 µM (inactive) | GI50 [9]: 16.7 µM (inactive) | GI50 [10]: 15.5 µM (inactive) | GI50 [11]: 15.2 µM (inactive) | GI50 [12]: 2.49 µM (inactive) | GI50 [13]: 7.08 µM | GI50 [14]: 1.45 µM (inactive) | GI50 [15]: 16.6 µM (inactive) | GI50 [16]: 22.6 µM (inactive) | GI50 [17]: 18 µM (inactive) | GI50 [18]: 18.9 µM (inactive) | GI50 [19]: 18.7 µM (inactive) | GI50 [20]: 2.27 µM (inactive) | GI50 [21]: 18.5 µM (inactive) | GI50 [22]: 18.3 µM (inactive) | GI50 [23]: 15.2 µM (inactive) | GI50 [24]: 8.87 µM (inactive) | GI50 [25]: 12.7 µM (inactive) | GI50 [26]: 3.05 µM (inactive) | GI50 [27]: 1.67 µM (inactive) | GI50 [28]: 7.05 µM (inactive) | GI50 [29]: 19 µM (inactive) | GI50 [30]: 18.7 µM (inactive) | GI50 [31]: 19.4 µM (inactive) | GI50 [32]: 1.66 µM (inactive) | GI50 [33]: 15.7 µM (inactive) | GI50 [34]: 31.8 µM (inactive) | GI50 [35]: 17 µM (inactive) | GI50 [36]: 3.47 µM (inactive) | GI50 [37]: 4.86 µM (inactive) | GI50 [38]: 3.91 µM (inactive) | GI50 [39]: 6.27 µM (inactive) | GI50 [40]: 19.9 µM (inactive) | GI50 [41]: 20.2 µM (inactive) | GI50 [42]: 3.66 µM (inactive) | GI50 [43]: 31.7 µM (inactive) | GI50 [44]: 15.4 µM (inactive) | GI50 [45]: 17.7 µM (inactive) | GI50 [46]: 11 µM (inactive) | GI50 [47]: 18.8 µM (inactive) | GI50 [48]: 19.4 µM (inactive) | GI50 [49]: 15.8 µM (inactive) | GI50 [50]: 3.01 µM (inactive) | GI50 [51]: 1.61 µM (inactive) | GI50 [52]: 7.05 µM (inactive) | GI50 [53]: 19.5 µM (inactive) | GI50 [54]: 10.8 µM (inactive) | GI50 [55]: 10.2 µM (inactive) | GI50 [56]: 12.8 µM (inactive) | GI50 [57]: 4.99 µM (inactive)
